Measurements taken from patent publication US8022099B2, “N-benzyl pyrrolidine derivatives” (Hoffmann-La Roche Inc., priority 2008, dated 2011).

Legend:
human NK3 receptor = target: T1, human NK3 receptor (Homo sapiens, UniProt P29371); experiment: [3H]SR142801 competition binding assay; settings: hNK3 receptor binding, [3H]SR142801, membranes from HEK293 cells transiently expressing recombinant human NK3 receptor
T1 construct: expressed in transfected cells; host or cells: HEK293 cells (transient expression), membrane preparation
T1 sequence (P29371 1-465): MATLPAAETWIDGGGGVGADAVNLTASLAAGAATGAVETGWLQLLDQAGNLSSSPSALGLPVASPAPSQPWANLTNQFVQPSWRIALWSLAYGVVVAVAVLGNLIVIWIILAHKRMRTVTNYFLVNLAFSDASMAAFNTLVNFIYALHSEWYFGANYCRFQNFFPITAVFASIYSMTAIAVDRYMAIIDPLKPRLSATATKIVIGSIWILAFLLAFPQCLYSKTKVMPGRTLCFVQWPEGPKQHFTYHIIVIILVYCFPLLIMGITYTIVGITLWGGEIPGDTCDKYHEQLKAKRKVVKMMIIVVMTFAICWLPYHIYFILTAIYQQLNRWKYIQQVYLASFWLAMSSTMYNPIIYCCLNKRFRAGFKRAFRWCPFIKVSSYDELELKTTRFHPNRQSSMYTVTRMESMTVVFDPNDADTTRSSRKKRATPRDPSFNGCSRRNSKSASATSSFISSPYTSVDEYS
In short: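 Membranes from HEK293 cells transiently expressing human NK3 were incubated 75 min at RT with [3H]SR142801 at its KD and inhibitor (0.0003-10 μM) in Tris-HCl pH 7.4/MnCl2/phosphoramidon/BSA. Nonspecific binding used 10 μM SB222200. Ki from Hill-fitted IC50 via Cheng-Prusoff, duplicate determinations.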

[1] = phase II trial, cited from earlier work

| Ki (human NK3 receptor) | SMILES | activity on positive symptoms of schizophrenia ([1]; altered behaviour, delusion, hallucinations, extreme emotions, excited motor activity, incoherent speech) | activity in the treatment of negative symptoms of schizophrenia ([1]; depression, anhedonia, social isolation, memory and attention deficits) |
| --- | --- | --- | --- |
| 5.9 nM | CN(Cc1ccc(C(F)(F)F)c(F)c1)[C@H]1CN(C(=O)CN2CCC(N(C)S(C)(=O)=O)CC2)C[C@@H]1c1ccc(Cl)c(Cl)c1 (racemic) [Example 144, N-[1-(2-{(3SR,4RS)-3-(3,4-Dichloro-phenyl)-4-[(3-fluoro-4-trifluoromethyl-benzyl)-methyl-amino]-pyrrolidin-1-yl}-2-oxo-ethyl)-piperidin-4-yl]-N-methyl-methanesulfonamide] |  |  |
| 13.7 nM | CN(Cc1ccc(C(F)(F)F)c(F)c1)[C@H]1CN(C(=O)CN2CCC(N3CCOCC3=O)CC2)C[C@@H]1c1ccc(Cl)c(Cl)c1 (racemic) [Example 145, 4-[1-(2-{(3SR,4RS)-3-(3,4-Dichloro-phenyl)-4-[(3-fluoro-4-trifluoromethyl-benzyl)-methyl-amino]-pyrrolidin-1-yl}-2-oxo-ethyl)-piperidin-4-yl]-morpholin-3-one] |  |  |
| 14.9 nM | CN(Cc1ccc(C(F)(F)F)c(F)c1)[C@H]1CN(C(=O)CN2CCC(N3CCCCC3=O)CC2)C[C@@H]1c1ccc(Cl)c(Cl)c1 (racemic) [Example 146, 1′-(2-{(3SR,4RS)-3-(3,4-Dichloro-phenyl)-4-[(3-fluoro-4-trifluoromethyl-benzyl)-methyl-amino]-pyrrolidin-1-yl}-2-oxo-ethyl)-[1,4′]bipiperidinyl-2-one] |  |  |
| 13.8 nM | CC(=O)N(C)C1CCN(CC(=O)N2C[C@H](c3ccc(Cl)c(Cl)c3)[C@@H](N(C)Cc3ccc(C(F)(F)F)c(F)c3)C2)CC1 (racemic) [Example 147, N-[1-(2-{(3SR,4RS)-3-(3,4-Dichloro-phenyl)-4-[(3-fluoro-4-trifluoromethyl-benzyl)-methyl-amino]-pyrrolidin-1-yl}-2-oxo-ethyl)-piperidin-4-yl]-N-methyl-acetamide] |  |  |
| 3.1 nM | CN(Cc1ccc(C(F)(F)F)c(F)c1)[C@H]1CN(C(=O)C2CCN(C(=O)C3(C)CC3)CC2)C[C@@H]1c1ccc(Cl)c(Cl)c1 (racemic) [Example 149, {(3SR,4RS)-3-(3,4-Dichloro-phenyl)-4-[(3-fluoro-4-trifluoromethyl-benzyl)-methyl-amino]-pyrrolidin-1-yl}-[1-(1-methyl-cyclopropanecarbonyl)-piperidin-4-yl]-methanone] |  |  |
| 13.4 nM | CN(Cc1ccc(C(F)(F)F)c(F)c1)[C@H]1CN(C(=O)N2CCN(c3ncccc3C#N)CC2)C[C@@H]1c1ccc(Cl)c(Cl)c1 [Example 71, 2-(4-{(3S,4R)-3-(3,4-Dichloro-phenyl)-4-[(3-fluoro-4-trifluoromethyl-benzyl)-methyl-amino]-pyrrolidine-1-carbonyl}-piperazin-1-yl)-nicotinonitrile] |  |  |
| 36.6 nM | COCCCCC(=O)N1C[C@H](c2ccc(Cl)c(Cl)c2)[C@@H](N(C)Cc2ccc(C(F)(F)F)c(F)c2)C1 [Example 99, 1-{(3S,4R)-3-(3,4-Dichloro-phenyl)-4-[(3-fluoro-4-trifluoromethyl-benzyl)-methyl-amino]-pyrrolidin-1-yl}-5-methoxy-pentan-1-one] |  |  |
| 26.7 nM | CN(Cc1ccc(C(F)(F)F)c(F)c1)[C@H]1CN(C(=O)CCN2CCOCC2)C[C@@H]1c1ccc(Cl)c(Cl)c1 [Example 110, 1-{(3S,4R)-3-(3,4-Dichloro-phenyl)-4-[(3-fluoro-4-trifluoromethyl-benzyl)-methyl-amino]-pyrrolidin-1-yl}-3-morpholin-4-yl-propan-1-one] |  |  |
| 43.7 nM | CN(Cc1ccc(C(F)(F)F)c(F)c1)[C@H]1CN(C(=O)CN2CCS(=O)(=O)CC2)C[C@@H]1c1ccc(Cl)c(Cl)c1 [Example 135, 1-{(3S,4R)-3-(3,4-Dichloro-phenyl)-4-[(3-fluoro-4-trifluoromethyl-benzyl)-methyl-amino]-pyrrolidin-1-yl}-2-(1,1-dioxo-λ^6-thiomorpholin-4-yl)-ethanone] |  |  |
|  | CC(=O)N(C)C1(c2ccccc2)CCN(CCC[C@]2(c3ccc(Cl)c(Cl)c3)CCCN(C(=O)c3ccccc3)C2)CC1 [SR 142,801, Osanetant] | active | inactive |
